One test concerns the target T1, C1b domain of human PKCθ (Homo sapiens, UniProt Q04759).
T1 construct: Genes encoding C1b domains of human PKCα, δ, ε, θ, and PKD1 (PKCμ) were synthesized; made in house; host or cells: E. coli BL21(DE3)
T1 sequence (Q04759 231-281 limits assumed): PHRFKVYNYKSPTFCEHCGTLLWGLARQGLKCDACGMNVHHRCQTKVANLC
The test can be described thus: Competitive 3H-PDBu binding to C1b domain of PKCθ. A digest of the protocol:
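GST-C1b (human, E. coli-expressed) + 3H-PDBu + compound; 37° C 10 min shaking, then ice 20 min. Filter capture, scintillation count. IC50 → Ki via Cheng-Prusoff, per-prep measured Kd.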

Test [1] relates to phosphorylation of CaMKii at T286 in Panc1 cells. The test can be described thus: CaMKii phosphorylation in Panc1 cell line (Western blot). It counts as cell-based. Particulars: 0.02 μM and 0.1 M, 48 hours (FIG. 5). The procedure:
Panc1 (a pancreatic cancer cell line) cells (˜5-8 millions) were seeded in 10 cm dishes (or ˜2 millions in 6 cm dishes) and treated next day with prostratin (K-101, 0.2 μM and 1 μM) or 0.02 μM and […] of K101-C1347, -C134801, and -C134802 for 48 hours. Cells were then collected/lysed for Western blot analysis. Protein quantification, SDS-PAGE, and Western blot procedures were performed as described in Example 65, except that a different lysis buffer (1 ml of 10×TNE [20 mL 1M Tris pH7.5; 30 mL 5M NaCl; 2 mL 0.5M EDTA; 48 mL d2H2O], 1 ml of 10% NP40, 7.7 mL of dH2O, 100 μL of 10× Protease inhibitors, 100 μL of 10× Phosphatase inhibitors, and 10 μl DTT) was used. To assess the effect of diterpenoid compounds on CaMKii phosphorylation, a phospho-specific antibody P-CaMKii (T286) (Abcam, cat #32678) was used for detection. Phosphorylation of CaMKii at T286 is a marker for activation of CaMKii kinase in the Wnt/Ca^2+ signaling pathway when […] and thus a downstream marker for inhibition of K-Ras stemness (Wang et al., Cell. 2015, 163(5):1237-51).

Test [2] relates to KP-4 (Pancreatic) cell line. The test can be described thus: Proliferation of KP-4. It counts as cell-based. Particulars: Homo sapiens, KP-4, read-out: IC50 in μM KP-4 (Pancreatic). In short, it runs like this: (§1)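 Seeding: KP-4 800-1000, HL-60 5000, Namalwa/Mino 5000-10000 cells/well; 24 h, 37° C. 3-fold DMSO dilution series, ≤0.25% DMSO final, 96 h exposure. Readout CellTiter Glo luminescence; IC50 fit, potency also expressed as IC50 ratio against comparator K01 to normalise across batches.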

Test [3] concerns HL-60 (Leukemia) cell line. Description: Proliferation of HL-60. It counts as cell-based. As to conditions: for ratio of (IC50 of K01)/(IC50 of compound), HL-60: value in parenthesis; for IC50: Homo sapiens, HL-60, read-out: IC50 in μM HL-60 (Leukemia). In short, it runs like this:
as §1

The subject of test [4] is phosphorylation of PKCμ, PKCδ and Erk1/2 in A549 lung cancer cells. It is filed as cell-based. Particulars: 0.3 μM, 30 minutes, Western blot (FIG. 1). As to the method:
Cells were then treated with different drugs at indicated concentrations for 30 minutes. […] Imagequant LAS4000 (GE) was used to scan membranes if secondary antibodies anti-mouse IgG HRP conjugate or anti-rabbit IgG HRP conjugate (dilutions from 1:2000-1:10000) were used. For ProteinSimple Wes system, manufacture's procedure was followed (ProteinSimple 12-230 kDa Wes Separation Module) for sample preparation, loading, running, and data analysis.
Phosphorylation of these sites has been linked to acute activation or catalytic activity of the PKC isoforms and Erk1/2. High level of phosphorylation indicates strong activation.

Regarding `CC1=C[C@H]2[C@@]3(O)[C@H](C)C[C@]4(OC(=O)[C@H](N)CCCCCCc5ccccc5)[C@H]([C@@H]3C=C(CO)C[C@]2(O)C1=O)C4(C)C` [Compound K101-C134801], the Ki (in general, the equilibrium dissociation constant of an inhibitor or competing ligand from its target) at C1b domain of human PKCθ fell in the range of 1 to 30 nM. In addition, the “phosphorylation of CaMKii at T286” value in test [1] was “induced phosphorylation of CaMKii at T286”. In addition, the half-inhibitory concentration (IC50) (usually the concentration that inhibits the measured activity by half) in test [2] was in the range of 0.03 to 0.06 µM. In test [3], the “ratio of (IC50 of K01)/(IC50 of compound), HL-60” value (“ratio” below) is reported as 4.43 and the IC50 fell in the range of 0.01 to 0.03 µM.

At C1b domain of human PKCθ, `CC1=C[C@H]2[C@@]3(O)[C@H](C)C[C@]4(OC(=O)[C@@H](N)CC5CCCCC5)[C@H]([C@@H]3C=C(CO)C[C@]2(O)C1=O)C4(C)C` [Compound K101-C1327] returned a Ki of 5 to 10 nM. Also, in test [4], the “phosphorylation of PKC (PKD/PKCμ), PKCδ and Erk1/2” value is “induced high levels of phosphorylation”. For the same compound, the half-inhibitory concentration (IC50) in test [2] was in the range of 0.1 to 0.2 µM. Besides, in test [3], the “ratio” value stood at 2.32 and the IC50 is 0.03 to 0.06 µM.

Consider `CC1=C[C@H]2[C@@]3(O)[C@H](C)C[C@]4(OC(=O)[C@@H](N)[C@]56C[C@H]7C[C@H](C[C@H](C7)C5)C6)[C@H]([C@@H]3C=C(CO)C[C@]2(O)C1=O)C4(C)C` [Compound K101-C1347], for which the inhibition constant Ki on C1b domain of human PKCθ is below 5 nM. Further, the “phosphorylation of CaMKii at T286” value in test [1] is listed as “induced phosphorylation of CaMKii at T286”. For the same compound, in test [2], the concentration for half-maximal inhibition (IC50) was 0.001 to 0.01 µM. Besides, in test [3], the “ratio” value came to 16.2 and the half-inhibitory concentration (IC50) was in the range of 0.001 to 0.01 µM.

On C1b domain of human PKCθ, `CC1=C[C@H]2[C@@]3(O)[C@H](C)C[C@]4(OC(=O)[C@@H](N)CCCCCCc5ccccc5)[C@H]([C@@H]3C=C(CO)C[C@]2(O)C1=O)C4(C)C` [Compound K101-C134802] returned a Ki below 5 nM. For the same compound, the “phosphorylation of CaMKii at T286” value in test [1] was “induced phosphorylation of CaMKii at T286”. Further, the concentration for half-maximal inhibition (IC50) in test [2] fell in the range of 0.001 to 0.01 µM. In test [3], the “ratio” value is reported as 12.1 and the concentration for half-maximal inhibition (IC50) lay within 0.001 to 0.01 µM.
